Measured values from PubChem BioAssay AID1919000 (Molecular Pharmacology Branch, DTP, NCI, 2023).

Tested on: 653999-131-R-J2-PDC complex spheroids, growth % test/control
Assay: Anticancer human tumor 653999-131-R-J2-PDC patient-derived lung adenocarcinoma cell line growth inhibition [AhR]
Conditions: for viability, T/C: stronger effect = lower value
Method in brief: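 Complex tumor spheroids co-cultured with HUVEC and human MSC stroma; AhR antagonists tested in combination with standard-of-care and investigational agents. Top concentration at or near clinical Cmax (else 10 microM), half-log dilutions; growth expressed as percent test/control.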

[1] = curve of first compound, second compound 0.1 µM
[2] = curve of first compound, second compound 0.316 µM
[3] = curve of first compound, second compound 1 µM
[4] = curve of first compound, second compound 3.16 µM
[5] = curve of first compound, second compound 10 µM
[6] = second compound 0.1 µM, first compound 0.00316 µM
[7] = second compound 0.1 µM, first compound 0.01 µM
[8] = second compound 0.1 µM, first compound 0.0316 µM
[9] = second compound 0.1 µM, first compound 0.1 µM
[10] = second compound 0.1 µM, first compound 0.316 µM
[11] = second compound 0.1 µM, first compound 1 µM
[12] = second compound 0.316 µM, first compound 0.00316 µM
[13] = second compound 0.316 µM, first compound 0.01 µM
[14] = second compound 0.316 µM, first compound 0.0316 µM
[15] = second compound 0.316 µM, first compound 0.1 µM
[16] = second compound 0.316 µM, first compound 0.316 µM
[17] = second compound 0.316 µM, first compound 1 µM
[18] = second compound 1 µM, first compound 0.00316 µM
[19] = second compound 1 µM, first compound 0.01 µM
[20] = second compound 1 µM, first compound 0.0316 µM
[21] = second compound 1 µM, first compound 0.1 µM
[22] = second compound 1 µM, first compound 0.316 µM
[23] = second compound 1 µM, first compound 1 µM
[24] = second compound 3.16 µM, first compound 0.00316 µM
[25] = second compound 3.16 µM, first compound 0.01 µM
[26] = second compound 3.16 µM, first compound 0.0316 µM
[27] = second compound 3.16 µM, first compound 0.1 µM
[28] = second compound 3.16 µM, first compound 0.316 µM
[29] = second compound 3.16 µM, first compound 1 µM
[30] = second compound 10 µM, first compound 0.00316 µM
[31] = second compound 10 µM, first compound 0.01 µM
[32] = second compound 10 µM, first compound 0.0316 µM
[33] = second compound 10 µM, first compound 0.1 µM
[34] = second compound 10 µM, first compound 0.316 µM
[35] = second compound 10 µM, first compound 1 µM
[36] = second compound 0.1 µM, first compound 3.16 µM
[37] = second compound 0.1 µM, first compound 10 µM
[38] = second compound 0.316 µM, first compound 3.16 µM
[39] = second compound 0.316 µM, first compound 10 µM
[40] = second compound 1 µM, first compound 3.16 µM
[41] = second compound 1 µM, first compound 10 µM
[42] = second compound 3.16 µM, first compound 3.16 µM
[43] = second compound 3.16 µM, first compound 10 µM
[44] = second compound 10 µM, first compound 3.16 µM
[45] = second compound 10 µM, first compound 10 µM
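Also: spheroids exposed to agents for seven days.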
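For viability, T/C in this document: 100% = DMSO vehicle control viability.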

SMILES: Nc1ncn(C2CC(O)C(CO)O2)c(=O)n1 (stereo not drawn) + CC(CO)NC(=O)c1cc(-c2ccc(Cl)cc2)nn(-c2cnn(C)c2)c1=O
- IC50 [1]: > 1000 nM
- IC50 [2]: > 1000 nM
- IC50 [3]: > 1000 nM
- IC50 [4]: > 1000 nM
- IC50 [5]: > 1000 nM
- viability, T/C [6]: 106%
- viability, T/C [7]: 110%
- viability, T/C [8]: 103%
- viability, T/C [9]: 89.4%
- viability, T/C [10]: 84.5%
- viability, T/C [11]: 79.9%
- viability, T/C [12]: 106%
- viability, T/C [13]: 110%
- viability, T/C [14]: 118%
- viability, T/C [15]: 89.8%
- viability, T/C [16]: 91.3%
- viability, T/C [17]: 83%
- viability, T/C [18]: 104%
- viability, T/C [19]: 108%
- viability, T/C [20]: 122%
- viability, T/C [21]: 109%
- viability, T/C [22]: 88.4%
- viability, T/C [23]: 86.4%
- viability, T/C [24]: 106%
- viability, T/C [25]: 111%
- viability, T/C [26]: 119%
- viability, T/C [27]: 110%
- viability, T/C [28]: 90.9%
- viability, T/C [29]: 87.8%
- viability, T/C [30]: 117%
- viability, T/C [31]: 116%
- viability, T/C [32]: 109%
- viability, T/C [33]: 126%
- viability, T/C [34]: 99%
- viability, T/C [35]: 109%

SMILES: Nc1ccccc1NC(=O)c1ccc(CNC(=O)OCc2cccnc2)cc1 + CC(CO)NC(=O)c1cc(-c2ccc(Cl)cc2)nn(-c2cnn(C)c2)c1=O
- IC50 [1]: 3830 nM
- IC50 [2]: 3530 nM
- IC50 [3]: 2780 nM
- IC50 [4]: 3490 nM
- IC50 [5]: 2660 nM
- viability, T/C [8]: 86.6%
- viability, T/C [9]: 93%
- viability, T/C [10]: 78.1%
- viability, T/C [11]: 65.4%
- viability, T/C [36]: 65.2%
- viability, T/C [37]: 13%
- viability, T/C [14]: 87.5%
- viability, T/C [15]: 85.2%
- viability, T/C [16]: 83.7%
- viability, T/C [17]: 68.7%
- viability, T/C [38]: 55.5%
- viability, T/C [39]: 15.6%
- viability, T/C [20]: 88%
- viability, T/C [21]: 94.3%
- viability, T/C [22]: 76.1%
- viability, T/C [23]: 65.5%
- viability, T/C [40]: 50.7%
- viability, T/C [41]: 14.2%
- viability, T/C [26]: 93.3%
- viability, T/C [27]: 95.6%
- viability, T/C [28]: 84.5%
- viability, T/C [29]: 70%
- viability, T/C [42]: 57.5%
- viability, T/C [43]: 12.9%
- viability, T/C [32]: 91%
- viability, T/C [33]: 101%
- viability, T/C [34]: 76.2%
- viability, T/C [35]: 67.2%
- viability, T/C [44]: 50.3%
- viability, T/C [45]: 6.65%

SMILES: CC1COCCN1c1cc(C2(S(C)(=N)=O)CC2)nc(-c2ccnc3[nH]ccc23)n1 (stereo not drawn) + Cc1ccccc1N=Nc1ccc(NC(=O)c2ccnn2C)c(C)c1
- IC50 [1]: 8830 nM
- IC50 [2]: 7290 nM
- IC50 [3]: 8180 nM
- IC50 [4]: 7120 nM
- IC50 [5]: 6750 nM
- viability, T/C [8]: 110%
- viability, T/C [9]: 90.1%
- viability, T/C [10]: 110%
- viability, T/C [11]: 83.5%
- viability, T/C [36]: 71.2%
- viability, T/C [37]: 47.3%
- viability, T/C [14]: 98.3%
- viability, T/C [15]: 102%
- viability, T/C [16]: 106%
- viability, T/C [17]: 94.5%
- viability, T/C [38]: 63%
- viability, T/C [39]: 45.1%
- viability, T/C [20]: 93.4%
- viability, T/C [21]: 95.3%
- viability, T/C [22]: 94.5%
- viability, T/C [23]: 84%
- viability, T/C [40]: 65.9%
- viability, T/C [41]: 46.6%
- viability, T/C [26]: 98%
- viability, T/C [27]: 86%
- viability, T/C [28]: 92.8%
- viability, T/C [29]: 80.8%
- viability, T/C [42]: 70.1%
- viability, T/C [43]: 41.6%
- viability, T/C [32]: 94.3%
- viability, T/C [33]: 83%
- viability, T/C [34]: 80.8%
- viability, T/C [35]: 71.2%
- viability, T/C [44]: 63.3%
- viability, T/C [45]: 42.8%

SMILES: CC(C)CC(NC(=O)C(Cc1ccccc1)NC(=O)c1cnccn1)B(O)O (stereo not drawn) + Cc1cncc(-c2nc(NCCc3c[nH]c4ccccc34)c3ncn(C(C)C)c3n2)c1
- IC50 [1]: 22.3 nM
- IC50 [2]: 20.4 nM
- IC50 [3]: 21.4 nM
- IC50 [4]: 20.4 nM
- IC50 [5]: 4.28 nM
- viability, T/C (second compound 0.1 µM, first compound 0.000949 µM): 94.5%
- viability, T/C (second compound 0.1 µM, first compound 0.003 µM): 130%
- viability, T/C (second compound 0.1 µM, first compound 0.00949 µM): 103%
- viability, T/C (second compound 0.1 µM, first compound 0.03 µM): 29.3%
- viability, T/C (second compound 0.1 µM, first compound 0.0949 µM): 9.65%
- viability, T/C (second compound 0.1 µM, first compound 0.3 µM): 3.26%
- viability, T/C (second compound 0.316 µM, first compound 0.000949 µM): 108%
- viability, T/C (second compound 0.316 µM, first compound 0.003 µM): 108%
- viability, T/C (second compound 0.316 µM, first compound 0.00949 µM): 113%
- viability, T/C (second compound 0.316 µM, first compound 0.03 µM): 20%
- viability, T/C (second compound 0.316 µM, first compound 0.0949 µM): 8.44%
- viability, T/C (second compound 0.316 µM, first compound 0.3 µM): 2.71%
- viability, T/C (second compound 1 µM, first compound 0.000949 µM): 100%
- viability, T/C (second compound 1 µM, first compound 0.003 µM): 126%
- viability, T/C (second compound 1 µM, first compound 0.00949 µM): 112%
- viability, T/C (second compound 1 µM, first compound 0.03 µM): 24%
- viability, T/C (second compound 1 µM, first compound 0.0949 µM): 7.89%
- viability, T/C (second compound 1 µM, first compound 0.3 µM): 3.25%
- viability, T/C (second compound 3.16 µM, first compound 0.000949 µM): 118%
- viability, T/C (second compound 3.16 µM, first compound 0.003 µM): 121%
- viability, T/C (second compound 3.16 µM, first compound 0.00949 µM): 112%
- viability, T/C (second compound 3.16 µM, first compound 0.03 µM): 18.5%
- viability, T/C (second compound 3.16 µM, first compound 0.0949 µM): 4.53%
- viability, T/C (second compound 3.16 µM, first compound 0.3 µM): 2.13%
- viability, T/C (second compound 10 µM, first compound 0.000949 µM): 59.6%
- viability, T/C (second compound 10 µM, first compound 0.003 µM): 66.7%
- viability, T/C (second compound 10 µM, first compound 0.00949 µM): 20.5%
- viability, T/C (second compound 10 µM, first compound 0.03 µM): 2.12%
- viability, T/C (second compound 10 µM, first compound 0.0949 µM): 0.89%
- viability, T/C (second compound 10 µM, first compound 0.3 µM): 0.72%

SMILES: CC[C@@]1(O)C(=O)OCc2c1cc1n(c2=O)Cc2cc3c(CN(C)C)c(O)ccc3nc2-1 + Cc1cncc(-c2nc(NCCc3c[nH]c4ccccc34)c3ncn(C(C)C)c3n2)c1
- IC50 [1]: 34.2 nM
- IC50 [2]: 26.8 nM
- IC50 [3]: 30.1 nM
- IC50 [4]: 47.3 nM
- IC50 [5]: 4.63 nM
- viability, T/C (second compound 0.1 µM, first compound 0.000316 µM): 100%
- viability, T/C (second compound 0.1 µM, first compound 0.001 µM): 86.7%
- viability, T/C [6]: 88.2%
- viability, T/C [7]: 70%
- viability, T/C [8]: 49.5%
- viability, T/C [9]: 40.4%
- viability, T/C (second compound 0.316 µM, first compound 0.000316 µM): 95.4%
- viability, T/C (second compound 0.316 µM, first compound 0.001 µM): 93.2%
- viability, T/C [12]: 83%
- viability, T/C [13]: 72.8%
- viability, T/C [14]: 44.6%
- viability, T/C [15]: 33.7%
- viability, T/C (second compound 1 µM, first compound 0.000316 µM): 106%
- viability, T/C (second compound 1 µM, first compound 0.001 µM): 117%
- viability, T/C [18]: 95%
- viability, T/C [19]: 72.3%
- viability, T/C [20]: 51.4%
- viability, T/C [21]: 36.3%
- viability, T/C (second compound 3.16 µM, first compound 0.000316 µM): 112%
- viability, T/C (second compound 3.16 µM, first compound 0.001 µM): 106%
- viability, T/C [24]: 91.5%
- viability, T/C [25]: 77.4%
- viability, T/C [26]: 57.5%
- viability, T/C [27]: 36.2%
- viability, T/C (second compound 10 µM, first compound 0.000316 µM): 55.2%
- viability, T/C (second compound 10 µM, first compound 0.001 µM): 64.4%
- viability, T/C [30]: 54.6%
- viability, T/C [31]: 39.3%
- viability, T/C [32]: 34.1%
- viability, T/C [33]: 28.5%

SMILES: Cc1ccccc1N=Nc1ccc(NC(=O)c2ccnn2C)c(C)c1
- viability, T/C (compound 0.1 µM): 96.6% [middle of 19 runs]
- viability, T/C (compound 1 µM): 95.3% [middle of 20 runs]
- IC50 (compound alone, run of 06/14/2022): > 10000 nM
